Data: ChEMBL document CHEMBL1201862, “PubChem BioAssay data set” (2004)
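1) Cells in 96-well plates. 2) Compound, 48 h, 5 concentrations. 3) Linear interpolation between surrounding doses. 4) Unreached endpoint = highest concentration. Abbreviation: GI50, concentration required for 50% inhibition of growth.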 Active and inactive are the calls of the source. Rule as the data show it: active = GI50 up to about 1.1 µM and inactive = higher.

Experiments:
Assay in all cases: NCI-60 cell line screen, 48 h
XF498 = test system: XF498
KM-20L2 = test system: KM-20L2
DMS-273 = test system: DMS-273
DLD-1 = test system: DLD-1
A498 = test system: A498
MCF7 = test system: MCF7

Measured: GI50

O=C(O)c1cc2c(ncc3c(=O)n(-c4ccccc4)[nH]c32)s1
inactive: XF498 > 100 µM | KM-20L2 > 100 µM | DMS-273 > 100 µM | DLD-1 > 100 µM

O=C1CCc2cc3c(cc21)CC1(Cc2cc4c(cc2C1)CCCC4)C3
inactive: A498 61.5 µM | MCF7 44.5 µM
